Data: patent US4220755A, “Fortimicin B derivatives and process for production thereof” (Abbott Laboratories, priority 1976, dated 1980)
≈ marks a conversion by molar mass, not a printed value.

Assays:
Escherichia coli NIHTC-2 = assay: MIC, agar dilution method, pH 7.2; format: cell-based; conditions: NIHTC2; pH 7.2; Escherichia coli NIHTC-2; read-out: Minimum inhibition concentration (MIC)
Description: (§1) Measurement was carried out according to the agar dilution method, using a medium of pH 8.0, or the Japanese Antibiotic Medicament Standard, using a medium of pH 7.2 Units are in mcg/ml.

[1] = tested on: Eschericihia coli GN2411-5; assay: MIC, agar dilution method, pH 7.2; format: cell-based; conditions: Escherichia coli; pH 7.2; E. coli GN2411-5; read-out: Minimum inhibition concentration (MIC)
Description: as §1

[2] = tested on: Klebsiella pneumoniae KY4274; assay: MIC, agar dilution method, pH 7.2; format: cell-based; conditions: pH 7.2; Klebsiella pneumoniae KY4274; read-out: Minimum inhibition concentration (MIC)
Description: as §1

Proteus vulgaris JJ = assay: MIC, agar dilution method, pH 7.2; format: cell-based; conditions: pH 7.2; Proteus vulgaris JJ; read-out: Minimum inhibition concentration (MIC)
Description: as §1

[3] = tested on: Pseudomonas aeruginosa BMH# 1; assay: MIC, agar dilution method, pH 7.2; format: cell-based; conditions: pH 7.2; Pseudomonas aeruginosa BMH# 1; read-out: Minimum inhibition concentration (MIC)
Description: as §1

[4] = tested on: Pseudomonas aeruginosa UCLA 4184; assay: MIC, agar dilution method, pH 7.2; format: cell-based; conditions: UCLA4184; pH 7.2; Pseudomonas aeruginosa UCLA 4184; read-out: Minimum inhibition concentration (MIC)
Description: as §1

[5] = tested on: Salmonella enteritidis G-14; assay: MIC, agar dilution method, pH 7.2; format: cell-based; conditions: Salmonella enterica; pH 7.2; Salmonella enteritidis G-14; read-out: Minimum inhibition concentration (MIC)
Description: as §1

Shigella sonnei ATCC9290 = assay: MIC, agar dilution method, pH 7.2; format: cell-based; conditions: read-out: Minimum inhibition concentration (MIC)
Description: as §1

[6] = tested on: Staphylococcus aureus 209-P; assay: MIC, agar dilution method, pH 7.2; format: cell-based; conditions: pH 7.2; Staphylococcus aureus 209-P; read-out: Minimum inhibition concentration (MIC)
Description: as §1

[7] = tested on: Staphylococcus aureus Smith (A); assay: MIC, agar dilution method, pH 7.2; format: cell-based; conditions: pH 7.2; Staphylococcus aureus Smith (A); read-out: Minimum inhibition concentration (MIC)
Description: as §1

[8] = tested on: Staphylococcus a ureus 226; assay: MIC, agar dilution method, pH 7.2; format: cell-based, Staphylococcus aureus; conditions: pH 7.2; Staphylococcus aureus 226; read-out: Minimum inhibition concentration (MIC)
Description: as §1

Eschericihia coli 3100 = assay: MIC, agar dilution method, pH 7.2; format: cell-based, Escherichia coli; conditions: Escherichia coli; pH 7.2; E. coli 3100; read-out: Minimum inhibition concentration (MIC)
Description: as §1

[9] = tested on: Escherichia coli 57R/W677; assay: MIC, agar dilution method, pH 7.2; format: cell-based; conditions: 57R/W677, pH 7.2, read-out: Minimum inhibition concentration (MIC)
Description: as §1
(§2) **1: gentamicin, producing adenylsynthetase.

Escherichia coli 76-2 = assay: MIC, agar dilution method, pH 7.2; format: cell-based; conditions: Escherichia coli, 762; pH 7.2; E. coli 76-2; 1**: gentamicin, producing adenylsynthetase; read-out: Minimum inhibition concentration (MIC)
Description: as §1, §2

[10] = tested on: Escherichia coli R12 Z-338; assay: MIC, agar dilution method, pH 7.2; format: cell-based; conditions: R12Z338, pH 7.2, E. coli R12 Z-338, 1**: gentamicin, producing adenylsynthetase, read-out: Minimum inhibition concentration (MIC)
Description: as §1, §2

[11] = tested on: Klebsiella pneumoniae 3020 Y-60; assay: MIC, agar dilution method, pH 7.2; format: cell-based; conditions: 3020Y60; pH 7.2; Klebsiella pneumoniae 3020 Y-60; 1**: gentamicin, producing adenylsynthetase; read-out: Minimum inhibition concentration (MIC)
Description: as §1, §2

[12] = tested on: Escherichia coli R18 KY8321; assay: MIC, agar dilution method, pH 7.2; format: cell-based; conditions: R18KY8321, E. coli R18 KY8321, 2**: gentamicin, producing adenylsynthetase and neomycin phosphotransferase type II, read-out: Minimum inhibition concentration (MIC)
Description: as §1
2: gentamicin, producing adenylsynthetase and neomycin phosphotransferase

[13] = tested on: Escherichia coli R17 Z343; assay: MIC, agar dilution method, pH 7.2; format: cell-based; conditions: R17Z343, pH 7.2, E. coli R17 Z343, 3**: kanamycin, producing acetyltransferase, read-out: Minimum inhibition concentration (MIC)
Description: as §1
(§3) 3: kanamycin, producing acetyltransferase.

[14] = tested on: Pseudomonas aeruginosa R9 KY8516; assay: MIC, agar dilution method, pH 7.2; format: cell-based; conditions: R9KY8516, pH 7.2, P. aeruginosa R9 KY8516, 3**: kanamycin, producing acetyltransferase, read-out: Minimum inhibition concentration (MIC)
Description: as §1, §3

Serratia marcescens 1065 = assay: MIC, agar dilution method, pH 7.2; format: cell-based; conditions: pH 7.2; Serratia marcescens 1065; 3**: kanamycin, producing acetyltransferase; read-out: Minimum inhibition concentration (MIC)
Description: as §1, §3

[15] = tested on: Escherichia coli R19 KY8348; assay: MIC, agar dilution method, pH 7.2; format: cell-based; conditions: R19KY8348, pH 7.2, E. coli R19 KY8348, 4**: gentamicin, producing acetyltransferase type I, read-out: Minimum inhibition concentration (MIC)
Description: as §1
(§4) 4: gentamicin, producing acetyltransferase type I.

[16] = tested on: Pseudomonas aeruginosa R4 KY8511; assay: MIC, agar dilution method, pH 7.2; format: cell-based; conditions: R4KY8511, pH 7.2, P. aeruginosa R4 KY8511, 4**: gentamicin, producing acetyltransferase type I, read-out: Minimum inhibition concentration (MIC)
Description: as §1, §4

[17] = tested on: Escherichia coli R20 KY8349; assay: MIC, agar dilution method, pH 7.2; format: cell-based; conditions: R20KY8349, pH 7.2, E. coli R20 KY8349, 5**: neomycin, producing phosphotransferase type I, read-out: Minimum inhibition concentration (MIC)
Description: as §1
5: neomycin, producing phosphotransferase type I.

[18] = tested on: Pseudomonas aeruginosa R5 KY8512; assay: MIC, agar dilution method, pH 7.2; format: cell-based; conditions: R5KY8512, pH 7.2, P. aeruginosa R5 KY8512, 6**: neomycin, producing phosphotransferase type I and type II, read-out: Minimum inhibition concentration (MIC)
Description: as §1
6: neomycin, producing phosphotransferase type I and type II.

Providencia sp 164 = assay: MIC, agar dilution method, pH 7.2; format: cell-based; conditions: pH 7.2; Providencia sp 164; 7**: gentamicin, producing acetyltransferase type II; read-out: Minimum inhibition concentration (MIC)
Description: as §1
7: gentamicin, producing acetyltransferase type II.

[19] = tested on: Staphylococcus aureus KY4279 ATCC6538P; assay: MIC, agar dilution method, pH 8.0; format: cell-based; conditions: Staphylococcus aureus, pH 8, read-out: Minimum inhibition concentration (MIC), SA
Description: as §1
S.A.: Staphylococcus aureus KY4279 ATCC6538P

Bacillus subtilis KY4273 = assay: MIC, agar dilution method, pH 8.0; format: cell-based; conditions: pH 8.0; Bacillus subtilis KY4273; read-out: Minimum inhibition concentration (MIC), BS
Description: as §1
B.S.: Bacillus subtilis KY4273

[20] = tested on: Eschericia coli KY4271 ATCC26; assay: MIC, agar dilution method, pH 8.0; format: cell-based; conditions: Escherichia coli, ATCC26, pH 8, read-out: Minimum inhibition concentration (MIC), EC
Description: as §1
E.C.: Eschericia coli KY4271 ATCC26

[21] = tested on: Proteus vulgaris KY4277 ATCC6897; assay: MIC, agar dilution method, pH 8.0; format: cell-based; conditions: ATCC6897; pH 8.0; Proteus vulgaris KY4277; read-out: Minimum inhibition concentration (MIC), PV
Description: as §1

[22] = tested on: Shigella sonnei KY4281 ATCC9290; assay: MIC, agar dilution method, pH 8.0; format: cell-based; conditions: ATCC9290; pH 8.0; Shigella sonnei KY4281; read-out: Minimum inhibition concentration (MIC), SS
Description: as §1

[23] = tested on: Salmonella typhosa KY4278 ATCC9992; assay: MIC, agar dilution method, pH 8.0; format: cell-based; conditions: Salmonella enterica, pH 8, read-out: Minimum inhibition concentration (MIC), ST
Description: as §1
S.T.: Salmonella typhosa KY4278 ATCC9992

[24] = tested on: Klebsiella pneumoniae KY4275 ATCC10031; assay: MIC, agar dilution method, pH 8.0; format: cell-based; conditions: ATCC10031; pH 8.0; Klebsiella pneumoniae KY4275; read-out: Minimum inhibition concentration (MIC), KP
Description: as §1
K.P.: Klebsiella pneumoniae KY4275 ATCC10031.

In the case of `CO[C@H]1[C@@H](O)[C@H](N)[C@@H](O[C@H]2O[C@H]([C@H](C)N)CC[C@H]2N)[C@H](O)[C@@H]1N(C)C(=O)CO` [Compound 4, 4-N-glycolylfortimicin B], the MIC (Escherichia coli NIHTC-2) is reported as 12.5 µg/mL (≈ 30.8 µM), the MIC [1] is reported as 12.5 µg/mL (≈ 30.8 µM) and the MIC [2] is reported as 25 µg/mL (≈ 61.5 µM). For the same compound, the MIC (Proteus vulgaris JJ) was 25 µg/mL (≈ 61.5 µM), the MIC [3] was 50 µg/mL (≈ 123 µM) and the MIC [4] was 100 µg/mL (≈ 246 µM). It also gave an MIC [5] of 25 µg/mL (≈ 61.5 µM), an MIC (Shigella sonnei ATCC9290) of 25 µg/mL (≈ 61.5 µM) and an MIC [6] of 3.12 µg/mL (≈ 7.68 µM). For the same compound, the MIC [7] was 3.12 µg/mL (≈ 7.68 µM), the MIC [8] was 12.5 µg/mL (≈ 30.8 µM) and the MIC (Eschericihia coli 3100) was 12.5 µg/mL (≈ 30.8 µM). It also gave an MIC [9] of 25 µg/mL (≈ 61.5 µM), an MIC (Escherichia coli 76-2) of 6.25 µg/mL (≈ 15.4 µM) and an MIC [10] of 25 µg/mL (≈ 61.5 µM). The MIC [11] was over 100 µg/mL, the MIC [12] was 6.25 µg/mL (≈ 15.4 µM) and the MIC [13] was 6.25 µg/mL (≈ 15.4 µM). For the same compound, the MIC [14] was 100 µg/mL (≈ 246 µM), the MIC (Serratia marcescens 1065) was 50 µg/mL (≈ 123 µM) and the MIC [15] was over 100 µg/mL. For the same compound, the MIC [16] was over 100 µg/mL, the MIC [17] was 12.5 µg/mL (≈ 30.8 µM) and the MIC [18] was 50 µg/mL (≈ 123 µM). For the same compound, the MIC (Providencia sp 164) was 100 µg/mL (≈ 246 µM), the MIC [19] was 1.25 µg/mL (≈ 3.08 µM) and the MIC (Bacillus subtilis KY4273) was 5 µg/mL (≈ 12.3 µM). The MIC [20] was 1.25 µg/mL (≈ 3.08 µM), the MIC [21] was 2.5 µg/mL (≈ 6.15 µM) and the MIC [22] was 5 µg/mL (≈ 12.3 µM). It also gave an MIC [23] of 1.25 µg/mL (≈ 3.08 µM) and an MIC [24] of 5 µg/mL (≈ 12.3 µM).
